# Key:
# [1] = test system: human LDL receptor gene promoter region coupled to firefly Luciferase reporter gene in Hep-G2 cell line; experiment: In vitro determination of LDL receptor induction using the Luciferase assay; type: cell-based; conditions: for LDL-receptor induction in %, compared with control: comparative test
# Procedure: 1) In vitro Determination of LDL Receptor Induction Using the Luciferase Assay
# LDL-receptor induction is determined using the Luciferase assay as follows: for this purpose, a regulatory DNA fragment (4 kb) of the human LDL receptor gene which contains the complete promoter region is coupled to the firefly Luciferase reporter gene and stably transfixed into a Hep-G2 cell line. Cells from this line were seeded out on collagen-coated 96-well plates in MEM (minimum essential medium). After 24 hours in culture, the test substances, dissolved in DMSO, were added in final concentrations of 10 nM to 10 μM (final DMSO concentration=2%). The substances were incubated for 12-18 hours overnight (4 wells/conc. in each case), then D-luciferin was added as substrate for the Luciferase, and the luminescence was measured. The measured luminescence as a percentage of the control (control=100%) incubated only with DMSO indicates the extent of the relative LDL-receptor induction (Table 2).
# Further details of the method are described in: Current Protocols in Molecular Biology, F. M. Ausubel, R. Brent, R. E. Kingston, D. D. Moore, J. G. Seidman, J. A. Smith and Kevin Struhl editors, J. Wiley and Sons Inc., U.S.A.
# A comparative test was carried out by the Luciferase assay described above using 2,4-dichloro-5-(3,5-dimethylpiperidinosulfamoyl)benzoic acid and the compound from Example 42. [drawing 8]
# hyperlipidemic hamsters = experiment: In vivo determination of reduction in LDL cholesterol in hyperlipemic hamsters; design: species or system male Syrian hamsters; conditions: vs placebo-treated control
# Source text: 2) In vivo Determination of Reduction in LDL Cholesterol in Hamsters.
# Cholesterol-lowering effect of LDL-receptor inducers in hyperlipemic hamsters
# In this animal experiment, the effect of LDL-receptor inducers after bolus administration to hamsters on a lipid-rich diet was investigated.
# The test animals used were male Syrian hamsters (Charles River) with an average body weight of 100-120 g at the start of adaptation. The animals were divided into groups (n=6) on the basis of body weight. Severe hyperlipidemia was induced by feeding with a diet supplemented with 15% butter and 3% cholesterol. The treatment started after preliminary feeding for 2 weeks. The test substances were administered orally by gavage once a day over a period of 10 days. The plasma lipid level was analyzed after 10 days.
# [2] = test compound 1.5 μM, control (DMSO only)=100%, Hep-G2 reporter line
# [3] = test compound 0.15 μM, control (DMSO only)=100%, Hep-G2 reporter line
# [4] = test compound 0.05 μM, control (DMSO only)=100%, Hep-G2 reporter line
# [5] = 20 mg/kg p.o. once a day for 10 days
# [6] = 10 mg/kg p.o. once a day for 10 days
# [7] = 40 mg/kg p.o. once a day for 10 days
# [8] = test compound 0.15 μM, control (DMSO only)=100%, Hep-G2 reporter line, 0.15 µM
smiles,measurement,setting,value
CN1CCN(c2cc(NCCCc3ccccc3)c(S(=O)(=O)N(C)c3ccccc3)cc2C(=O)N(C)c2ccccc2)CC1 [Example 2],LDL-receptor induction (% of control),[1]; [2],225% (1.5 μM)
CN1CCN(c2cc(NCCc3ccccc3)c(S(=O)(=O)N(C)c3ccccc3)cc2C(=O)N(C)c2ccccc2)CC1 [Example 3],LDL-receptor induction (% of control),[1]; [2],276% (1.5 μM)
CN1CCN(c2cc(NC3CCN(Cc4ccccc4)CC3)c(S(=O)(=O)N(C)c3ccccc3)cc2C(=O)N(C)c2ccccc2)CC1 [Example 4],LDL-receptor induction (% of control),[1]; [3],190% (0.15 μM)
CN1CCN(c2cc(N3CCC(Cc4ccccc4)CC3)c(S(=O)(=O)N(C)c3ccccc3)cc2C(=O)N(C)c2ccccc2)CC1 [Example 9],LDL-receptor induction (% of control),[1]; [3],170% (0.15 μM)
CN1CCN(c2cc(NC3CCN(Cc4ccccc4)CC3)c(S(C)(=O)=O)cc2C(=O)N(C)c2ccccc2)CC1 [Example 14],LDL-receptor induction (% of control),[1]; [2],176% (1.5 μM)
CN(C(=O)c1cc(S(=O)(=O)N(C)c2ccccc2)c(N2CCC(Cc3ccccc3)CC2)cc1NCCN1CCCC1)c1ccccc1 [Example 22],LDL-receptor induction (% of control),[1]; [3],224% (0.15 μM)
CN(C(=O)c1cc(S(=O)(=O)N(C)c2ccccc2)c(N2CCC(c3ccccc3)CC2)cc1NCCN1CCCC1)c1ccccc1 [Example 25],LDL-receptor induction (% of control),[1]; [4],152%
same,LDL-receptor induction (% of control),[1]; [2],346%
CN1CCN(c2cc(N3CCC(Cc4ccccc4)CC3)c(S(C)(=O)=O)cc2C(=O)N2CCCCC2)CC1 [Example 30],LDL-receptor induction (% of control),[1]; [3],199%
same,LDL-receptor induction (% of control),[1]; [2],255%
COCCCNC(=O)c1cc(S(C)(=O)=O)c(N2CCC(c3ccccc3)CC2)cc1N1CCN(C)CC1 [Example 34],LDL-receptor induction (% of control),[1]; [3],210%
same,LDL-receptor induction (% of control),"[1]; test compound 4 μM, control (DMSO only)=100%, Hep-G2 reporter line",291%
CN1CCN(c2cc(N3CCC(c4ccccc4)CC3)c(S(=O)(=O)N3CCCCC3)cc2C(=O)N2CCCCC2)CC1 [Example 37],LDL-receptor induction (% of control),[1]; [3],204%
same,LDL-receptor induction (% of control),[1]; [2],227%
same,Relative change in plasma LDL cholesterol,hyperlipidemic hamsters; [5],−31%
same,Relative change in plasma total cholesterol,hyperlipidemic hamsters; [5],−21%
same,Relative change in plasma triglycerides,hyperlipidemic hamsters; [5],−46%
"CCN(CC)C(=O)c1cc(S(=O)(=O)Cc2ccccc2)c(N2CCC(c3ccccc3)CC2)cc1N(CC)CCN(C)C [Example 42, 2-[(2-Dimethylaminoethyl)ethylamino]-N,N-diethyl-5-phenylmethane-sulfonyl-4-(4-phenylpiperidin-1-yl)benzamide]",activity at 0.05 µM,"[1]; Homo sapiens, HepG2, test compound 0.05 μM, control (DMSO only)=100%, Hep-G2 reporter line",149%
same,"LDL-receptor induction in %, compared with control",[1]; 0.05 μM,204%
same,"LDL-receptor induction in %, compared with control",[1]; 0.15 μM,219%
same,"LDL-receptor induction in %, compared with control",[1]; 1.5 μM,250%
same,"LDL-receptor induction in %, compared with control",[1]; 4 μM,278%
CCCCCNC(=O)c1cc(S(C)(=O)=O)c(N2CCC(Cc3ccccc3)CC2)cc1NCCN1CCCC1 [Example 53],LDL-receptor induction (% of control),[1]; [4],197%
same,LDL-receptor induction (% of control),[1]; [3],221%
same,Relative change in plasma LDL cholesterol,hyperlipidemic hamsters; [6],−52%
same,Relative change in plasma total cholesterol,hyperlipidemic hamsters; [6],−7%
same,Relative change in plasma triglycerides,hyperlipidemic hamsters; [6],+21%
same,Relative change in plasma LDL cholesterol,hyperlipidemic hamsters; [5],−57%
same,Relative change in plasma total cholesterol,hyperlipidemic hamsters; [5],−16%
same,Relative change in plasma triglycerides,hyperlipidemic hamsters; [5],−11%
same,Relative change in plasma LDL cholesterol,hyperlipidemic hamsters; [7],−58%
same,Relative change in plasma total cholesterol,hyperlipidemic hamsters; [7],−17%
same,Relative change in plasma triglycerides,hyperlipidemic hamsters; [7],−23%
CCCCCNC(=O)c1cc(S(C)(=O)=O)c(N2CCC(c3ccccc3)CC2)cc1NCCN1CCCC1 [Example 54],LDL-receptor induction (% of control),[1]; [8],223% (0.15 μM)
COCCCNC(=O)c1cc(S(C)(=O)=O)c(N2CCC(Cc3ccccc3)CC2)cc1NCCN1CCCC1 [Example 57],LDL-receptor induction (% of control),[1]; [3],222% (0.15 μM)
COCCCNC(=O)c1cc(S(C)(=O)=O)c(N2CCC(Cc3ccccc3)CC2)cc1N(C)CCN(C)C [Example 62],LDL-receptor induction (% of control),[1]; [4],205% (0.05 μM)
CN(C)CCN(C)c1cc(N2CCC(Cc3ccccc3)CC2)c(S(C)(=O)=O)cc1C(=O)N1CCCCC1 [Example 67],LDL-receptor induction (% of control),[1]; [3],203% (0.15 μM)
CCCCCNC(=O)c1cc(S(=O)(=O)Cc2ccccc2)c(N2CCC(c3ccc(F)cc3)CC2)cc1N(CC)CCN(C)C [Example 76],LDL-receptor induction (% of control),[1]; [3],244% (0.15 μM)
CCCCCNC(=O)c1cc(S(=O)(=O)Cc2ccccc2)c(N2CCC(c3ccc(C)cc3)CC2)cc1N(CC)CCN(C)C [Example 78],LDL-receptor induction (% of control),[1]; [3],200% (0.15 μM)
CCN(CC)C(=O)c1cc(S(=O)(=O)Cc2ccc(F)cc2F)c(N2CCC(c3ccccc3)CC2)cc1N(CC)CCN(C)C [Example 82],LDL-receptor induction (% of control),[1]; [3],227% (0.15 μM)
CCN(CC)C(=O)c1cc(S(=O)(=O)Cc2ccc(C)cc2)c(N2CCC(c3ccccc3)CC2)cc1NCCN1CCCC1 [Example 83],LDL-receptor induction (% of control),[1]; [3],212% (0.15 μM)
CCN(CC)C(=O)c1cc(S(=O)(=O)Cc2cccc(OC)c2)c(N2CCC(c3ccccc3)CC2)cc1NCCN1CCCC1 [Example 84],LDL-receptor induction (% of control),[1]; [4],240% (0.05 μM)
CCN(CC)C(=O)c1cc(S(=O)(=O)Cc2cccc(OC(F)(F)F)c2)c(N2CCC(c3ccccc3)CC2)cc1NCCN1CCCC1 [Example 91],LDL-receptor induction (% of control),[1]; [4],231% (0.05 μM)
CCN(CC)C(=O)c1cc(S(=O)(=O)Cc2cc(OC)cc(OC)c2)c(N2CCC(c3ccccc3)CC2)cc1N(CC)CCN(C)C [Example 96],LDL-receptor induction (% of control),[1]; [4],196% (0.05 μM)
CCN(CCN(C)C)c1cc(N2CCC(c3ccccc3)CC2)c(S(=O)(=O)Cc2ccccc2)cc1C(=O)NCCCCCO [Example 107],LDL-receptor induction (% of control),[1]; [4],288% (0.05 μM)
CCN(CC)C(=O)c1cc(S(=O)(=O)Cc2ccc(C(F)(F)F)cc2)c(N2CCC(c3ccccc3)CC2)cc1N(CC)CCN(C)C [Example 113],LDL-receptor induction (% of control),[1]; [4],217% (0.05 μM)
CCN(CC)C(=O)c1cc(S(=O)(=O)Cc2ccc(C#N)cc2)c(N2CCC(c3ccccc3)CC2)cc1N(CC)CCN(C)C [Example 116],LDL-receptor induction (% of control),[1]; [4],235% (0.05 μM)
"CCCCCNC(=O)c1cc(S(C)(=O)=O)c(N2CCC(c3ccccc3)CC2)cc1NCCN1CCCC1.CS(=O)(=O)O [Example 141, 2-[NH-Ethyl-N-pyyrolidinyl]-NH-pentyl-5-methylsulfonyl-4-(4-phenylpiperidin-1-yl)benzamide]",LDL-receptor induction (% of control),[1]; [3],280% (0.15 μM)
"CCCCCNC(=O)c1cc(S(C)(=O)=O)c(N2CCC(c3ccccc3)CC2)cc1NCCN1CCCC1.Cc1ccc(S(=O)(=O)O)cc1 [Example 142, 2-[NH-Ethyl-N-pyrrolidinyl]-NH-pentyl-5-methylsulfonyl-4-(4-phenylpiperidin-1-yl)benzamide]",LDL-receptor induction (% of control),[1]; [3],281% (0.15 μM)
"CCCCCNC(=O)c1cc(S(C)(=O)=O)c(N2CCC(c3ccccc3)CC2)cc1NCCN1CCCC1 [Example 143, 2-[NH-Ethyl-N-pyrrolidinyl]-NH-pentyl-5-methylsulfonyl-4-(4-phenylpiperidin-1-yl)benzamide]",LDL-receptor induction (% of control),[1]; [8],308% (0.15 μM)
CC1CC(C)CN(S(=O)(=O)c2cc(C(=O)O)c(Cl)cc2Cl)C1 (stereo not drawn) [reference compound],"LDL-receptor induction in %, compared with control",[1]; 0.05 μM,94%
same,"LDL-receptor induction in %, compared with control",[1]; 0.15 μM,90%
same,"LDL-receptor induction in %, compared with control",[1]; 1.5 μM,90%
same,"LDL-receptor induction in %, compared with control",[1]; 4 μM,100%

# Reference: patent US6552048B2, “Sulfonylcarboxamide derivatives, process for their preparation and their use as pharmaceuticals” (Aventis Pharma Deutschland GmbH, priority 1999, dated 2003)
